Source: publication PMC6978800, “FAMIN Is a Multifunctional Purine Enzyme Enabling the Purine Nucleotide Cycle” (Cell, 2020)

Tests used:
YlmD [1] = target: T1, YlmD (Geobacillus stearothermophilus, UniProt P84138); experiment: LC-MS of inosine and adenine; type: biochemical; conditions: 10 μM substrate, PBS pH 7.4, 37°C, 1 h
T1 construct: gene pgeF; synthetic gene in pPSG-IBA105 (Strep-tag); expressed in E. coli BL21(DE3); StrepTrap and size exclusion
T1 sequence (P84138 1-274): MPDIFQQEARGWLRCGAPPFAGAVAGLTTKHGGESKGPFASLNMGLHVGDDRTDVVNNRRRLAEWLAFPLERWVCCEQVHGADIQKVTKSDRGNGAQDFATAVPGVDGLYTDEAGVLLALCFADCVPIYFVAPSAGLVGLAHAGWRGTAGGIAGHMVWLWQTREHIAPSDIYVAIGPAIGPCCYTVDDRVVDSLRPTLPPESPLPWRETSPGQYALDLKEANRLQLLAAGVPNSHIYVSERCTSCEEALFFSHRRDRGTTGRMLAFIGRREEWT

YfiH = target: T2, YfiH (Escherichia coli, UniProt P33644); experiment: LC-MS of inosine and adenine; type: biochemical; conditions: 10 μM substrate, PBS pH 7.4, 37°C, 1 h
T2 construct: gene pgeF; synthetic gene in pPSG-IBA105 (Strep-tag); expressed in E. coli BL21(DE3); StrepTrap and size exclusion
T2 sequence (P33644 1-243): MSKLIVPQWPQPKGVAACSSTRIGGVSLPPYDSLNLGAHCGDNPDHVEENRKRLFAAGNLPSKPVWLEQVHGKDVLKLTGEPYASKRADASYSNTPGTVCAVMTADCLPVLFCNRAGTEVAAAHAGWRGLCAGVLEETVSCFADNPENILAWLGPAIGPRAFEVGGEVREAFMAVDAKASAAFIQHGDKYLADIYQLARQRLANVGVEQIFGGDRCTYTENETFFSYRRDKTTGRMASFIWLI

FAMIN^254I = target: T3, FAMIN^254I (Homo sapiens, UniProt Q8IV20); experiment: LC-MS product quantitation, Michaelis-Menten; type: biochemical; conditions: PBS pH 7.4, 37°C; phosphate as co-substrate of phosphorolysis; read-out: apparent Km
T3 construct: gene LACC1; full-length, N-terminal Twin-Strep-tag with TEV site, tag cut (kept in select experiments); expressed in HEK293T; monomer; 430 residues
T3 sequence (Q8IV20 1-430): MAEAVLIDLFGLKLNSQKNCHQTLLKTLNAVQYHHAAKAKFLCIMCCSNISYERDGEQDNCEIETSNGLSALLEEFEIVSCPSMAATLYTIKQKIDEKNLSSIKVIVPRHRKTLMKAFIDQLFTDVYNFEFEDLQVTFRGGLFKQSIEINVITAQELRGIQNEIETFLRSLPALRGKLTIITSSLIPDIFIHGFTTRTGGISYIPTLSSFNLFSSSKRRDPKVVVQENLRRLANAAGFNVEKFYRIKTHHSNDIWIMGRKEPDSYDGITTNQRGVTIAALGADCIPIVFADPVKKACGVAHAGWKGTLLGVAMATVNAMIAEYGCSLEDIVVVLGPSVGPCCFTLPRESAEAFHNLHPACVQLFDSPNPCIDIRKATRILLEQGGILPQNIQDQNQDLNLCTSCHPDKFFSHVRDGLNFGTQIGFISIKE

YlmD [2] = target: T1, YlmD; experiment: X-ray crystal structure, soaked crystals, […] Å; type: binding; conditions: soak with 18.7 mM inosine, 0.5 mM sodium phosphate, 0.5 mM zinc sulfate, pH 7.5; active site, ribose partially hydrolyzed or disordered
YlmD [3] = target: T1, YlmD; experiment: LC-MS of adenine; type: biochemical; conditions: 10 μM substrate, PBS pH 7.4, 37°C, 1 h

Row | SMILES | LC-MS of inosine and adenine (YlmD [1]) | LC-MS of inosine and adenine (YfiH) | Km (FAMIN^254I) | X-ray crystal structure, soaked crystals, 1.2 Å (YlmD [2]) | LC-MS of adenine (YlmD [3])
1 | Nc1ncnc2c1ncn2[C@@H]1O[C@H](CO)[C@@H](O)[C@H]1O [Adenosine] | YlmD and YfiH metabolized adenosine to inosine and adenine, MTA to adenine | YlmD and YfiH metabolized adenosine to inosine and adenine, MTA to adenine | 36 µM | – | –
2 | O=c1[nH]cnc2c1ncn2[C@@H]1O[C@H](CO)[C@@H](O)[C@H]1O [Inosine] | – | – | 41 µM | unambiguously identifying the purine ring of a bound inosine molecule | –
3 | CSC[C@H]1O[C@@H](n2cnc3c(N)ncnc32)[C@H](O)[C@@H]1O [S-methyl-5′-thioadenosine] | – | – | 1 µM | – | YlmD and YfiH metabolized adenosine to inosine and adenine, MTA to adenine
